Read-outs that look alike come from different tables or passages of the source.
Experiments:
[1] = Pharmacokinetic evaluation after intravenous or gavage administration in rats; assay type: in vivo, SD rats
Description: (§1) The LC-MS/MS system comprises Agilent 1200 series vacuum degassing furnace, quaternary pumps, well-plate autosampler, thermostatted column compartment, the API4000Qtrap Triple Quadrupole Mass Spectrometer with an electrospray ionization (ESI) source. Quantitative analysis was carried out using MRM mode. The parameters for MRM transitions are in Table 2.
(§2) Analysis was carried out on waters xbridge C18 (2.1×50 mm, […] column, 0.5 μL of sample), the analytic conditions are mobile phases cosisting of water+2 mM ammonium formate+0.1% formic acid (Phase A) and methanol+2 mM ammonium formate+0.1% formic acid (Phase B). The flow rate was 0.4 mL/min. And the gradient of Mobile phase was in Table 3.
(§3) Each animal species was divided into two groups: one was administered intravenously and the other was administered intragastrically. The compounds disclosed herein were administered in form of a solution containing 5% DMSO+5% Kolliphor HS15+90% Saline. For the group of intravenous administration, the administration dose was 1 mg/kg, and vein blood samples (0.3 ml) were collected at the time points of 0.083, 0.25, 0.5, 1.0, 2.0, 4.0, 6.0, 8.0 and 24 h after drug administration, then plasma solutions were collected by centrifuging each blood sample at 3000 rpm or 4000 rpm for 10 minutes and kept at −20° C. or −70° C. For the group of intragastric administration, the administration dose was 5 mg/kg, and vein blood samples (0.3 mL) were collected at the time points of 0.25, 0.5, 1.0, 2.0, 4.0, 6.0, 8.0 and 24 h after drug administration, then plasma solutions were collected by centrifuging each blood sample at 3000 rpm or 4000 rpm for 10 minutes and kept at −20° C. or −70° C.
(§4) 20 μL of plasma was blended with 120 μl, 50 ng/ml propranolol standard water solution, then the mixture was extracted with 1.0 mL methyl tert-butyl ether (MTBE), 0.7 mL of supernatant was dried by blow with nitrogen and then dissolved again with 220 μL methanol water (methanol/water (v/v)=1/1). LC-MS/MS method was used to detect the concentration of the target compounds, and […] was used to calculate the pharmacokinetic parameters.

[2] = Evaluation of blood-brain barrier (BBB) after peritoneal injection in rats; assay type: in vivo; details: SD rats, intraperitoneal 10 mg/kg; for Kp at 15 min / Kp at 60 min / Kp at 120 min: Sprague-Dawley, rat
Description: The analysis method was the same as example B.
The experiment was divided into three groups: 15 min group, 1 h group and 2 h group. After overnight fasting for 12 hours, SD rats were administered by intraperitoneal injection with the compound of the invention in the form of 5% DMSO+5% Kolliphor HS15+90% Saline solution at a dose of 10 mg/kg. Blood, cerebrospinal fluid and brain tissue were collected at 15 minutes, 1 hour and 2 hours respectively after administration. Blood samples were centrifuged at 3,000 or 4,000 rpm for 10 minutes. The plasma solution was collected and kept at −20° C. or −70° C. The cerebrospinal fluid was processed using a protein precipitation method. A certain volume of cerebrospinal fluid sample were precisely absorbed and precipitated by adding 5 times acetonitrile solution containing internal standard. The mixture was mixed well by vortexing, and then centrifuged for 2 minutes at 12,000 rpm at 4° C., the supernatant was kept at −80° C. Brain tissue was homogenized with 2 times methanol solution, and centrifuged to get the supernatant, the supernatant were precipitated by adding 5 times acetonitrile solution containing internal standard.
The mixture was mixed well by vortexing, and then centrifuged for 2 minutes at 12,000 rpm at 4° C., the supernatant was kept at −80° C. LC-MS/MS method was used to detect the concentration of target compounds, BBB permeability was calculated and statistical analysis was carried out.

[3] = Pharmacokinetic evaluation after intravenous or gavage administration in monkeys; assay type: in vivo
Description: as §1, §2, §3, §4

[4] = SD, rat, plasma, iv, i.v group, 1 mg/kg
[5] = SD, rat, plasma, po, i.g group, 5 mg/kg
[6] = brain, 15 min, read-out: T/P Ratio Brain (brain tissue)
[7] = brain, 60 min, read-out: T/P Ratio Brain (brain tissue)
[8] = brain, 120 min, read-out: T/P Ratio Brain (brain tissue)
[9] = cerebrospinal fluid, 15 min, read-out: T/P Ratio CSF (cerebrospinal fluid)
[10] = cerebrospinal fluid, 60 min, read-out: T/P Ratio CSF (cerebrospinal fluid)
[11] = cerebrospinal fluid, 120 min, read-out: T/P Ratio CSF (cerebrospinal fluid)
[12] = monkey, plasma, iv, i.v group, 1 mg/kg
[13] = monkey, plasma, po, i.g group, 5 mg/kg

With `NC(=O)[C@@H]1C[C@H](F)CN1Cc1ccc(OCc2cccc(F)c2)cc1` [Example 1, (2S,4S)-4-fluoro-1-(4-(3-fluorobenzyloxy)benzyl)pyrrolidine-2-formamide] the AUC(0-inf) [1, 4] was 507 ng·h/mL, the Cmax [1, 4] was 690 ng/mL and the MRT inf [1, 4] was 0.694 h. It also gave a Tmax [1, 4] of 0.083 h, an AUC(0-inf) [1, 5] of 1400 ng·h/mL and an AUC(0-t) [1, 5] of 1400 ng·h/mL. For the same compound, the Cmax [1, 5] was 1000 ng/mL, the MRT inf [1, 5] was 1.08 h and the Tmax [1, 5] was 0.333 h. The half-life [1, 5] was 0.565 h, the F ([1]; i.g group, 5 mg/kg) was 55.2% and the AUClast ([1]; i.v group, 1 mg/kg) was 505 ng·h/mL. For the same compound, the Cl ([1]; i.v group, 1 mg/kg) was 32.9 mL/min/kg, the T1/2 ([1]; i.v group, 1 mg/kg) was 0.67 h and the “Conc. Brain (brain tissue)” value ([2]; 15 min) was 10243.33 ng/g or ng/ml. For the same compound, the “Conc. CSF (cerebrospinal fluid)” value ([2]; 15 min) was 147.67 ng/g or ng/ml, the “Conc. Plasm (plasma)” value ([2]; 15 min) was 5203.33 ng/g or ng/ml and the “Conc. Brain (brain tissue)” value ([2]; 60 min) was 9273.33 ng/g or ng/ml. For the same compound, the “Conc. CSF (cerebrospinal fluid)” value ([2]; 60 min) was 61.9 ng/g or ng/ml, the “Conc. Plasm (plasma)” value ([2]; 60 min) was 2073.33 ng/g or ng/ml and the “Conc. Brain (brain tissue)” value ([2]; 120 min) was 2890 ng/g or ng/ml. The “Conc. CSF (cerebrospinal fluid)” value ([2]; 120 min) was 34.4 ng/g or ng/ml, the “Conc. Plasm (plasma)” value ([2]; 120 min) was 864.33 ng/g or ng/ml and the Kp at 15 min [2, 6] was 1.97. For the same compound, the Kp at 60 min [2, 7] was 4.47, the Kp at 120 min [2, 8] was 3.34 and the Kp at 15 min [2, 9] was 0.028. For the same compound, the Kp at 60 min [2, 10] was 0.03, the Kp at 120 min [2, 11] was 0.04 and the AUClast ([3]; i.g group, 5 mg/kg) was 11300 ng·h/mL. The Cmax ([3]; i.g group, 5 mg/kg) was 2280 ng/mL, the F ([3]; i.g group, 5 mg/kg) was 107.1% and the T1/2 ([3]; i.g group, 5 mg/kg) was 2.8 h. The AUClast ([3]; i.v group, 1 mg/kg) was 2120 ng·h/mL, the Cl ([3]; i.v group, 1 mg/kg) was 7.54 mL/min/kg and the Cmax ([3]; i.v group, 1 mg/kg) was 924 ng/mL. The T1/2 ([3]; i.v group, 1 mg/kg) was 1.77 h, the AUC(0-inf) [3, 12] was 2210 ng·h/mL and the MRT inf [3, 12] was 2.35 h. It also gave a Tmax [3, 12] of 0.083 h, an AUC(0-inf) [3, 13] of 11400 ng·h/mL and an MRT inf [3, 13] of 4.33 h. For the same compound, the Tmax [3, 13] was 1 h.

With `NC(=O)[C@@H]1C[C@H](F)CN1Cc1ccc(OCc2cccc(F)c2)cc1F` [Example 3, (2S,4S)-4-fluoro-1-(2-fluoro-4-(3-fluorobenzyloxy)benzyl)pyrrolidine-2-formamide] the AUC(0-inf) [1, 4] was 582 ng·h/mL, the AUC(0-t) [1, 4] was 582 ng·h/mL and the Cmax [1, 4] was 681 ng/mL. For the same compound, the MRT inf [1, 4] was 0.778 h, the Tmax [1, 4] was 0.083 h and the clearance [1, 4] was 28.7 mL/min/kg. For the same compound, the half-life [1, 4] was 0.712 h, the AUC(0-inf) [1, 5] was 1550 ng·h/mL and the AUC(0-t) [1, 5] was 1520 ng·h/mL. The Cmax [1, 5] was 700 ng/mL, the MRT inf [1, 5] was 2.11 h and the Tmax [1, 5] was 0.625 h. For the same compound, the half-life [1, 5] was 1.23 h, the F ([1]; i.g group, 5 mg/kg) was 53.3% and the “Conc. Brain (brain tissue)” value ([2]; 15 min) was 8610 ng/g or ng/ml. For the same compound, the “Conc. CSF (cerebrospinal fluid)” value ([2]; 15 min) was 56.67 ng/g or ng/ml, the “Conc. Plasm (plasma)” value ([2]; 15 min) was 3496.67 ng/g or ng/ml and the “Conc. Brain (brain tissue)” value ([2]; 60 min) was 5253.33 ng/g or ng/ml. The “Conc. CSF (cerebrospinal fluid)” value ([2]; 60 min) was 39.77 ng/g or ng/ml, the “Conc. Plasm (plasma)” value ([2]; 60 min) was 1930 ng/g or ng/ml and the “Conc. Brain (brain tissue)” value ([2]; 120 min) was 1576.67 ng/g or ng/ml. For the same compound, the “Conc. CSF (cerebrospinal fluid)” value ([2]; 120 min) was 13.05 ng/g or ng/ml, the “Conc. Plasm (plasma)” value ([2]; 120 min) was 686.67 ng/g or ng/ml and the Kp at 15 min [2, 6] was 2.46. It also gave a Kp at 60 min [2, 7] of 2.72, a Kp at 120 min [2, 8] of 2.3 and a Kp at 15 min [2, 9] of 0.016. For the same compound, the Kp at 60 min [2, 10] was 0.021, the Kp at 120 min [2, 11] was 0.019 and the F ([3]; i.g group, 5 mg/kg) was 69.1%. It also gave an AUC(0-inf) [3, 12] of 3260 ng·h/mL, an AUC(0-t) [3, 12] of 3240 ng·h/mL and an MRT inf [3, 12] of 3.41 h. For the same compound, the Tmax [3, 12] was 0.083 h, the clearance [3, 12] was 5.12 mL/min/kg and the half-life [3, 12] was 2.24 h. The Cmax ([3]; monkey, plasma, iv, i.v group, 1 mg/kg, read-out: Cmax) was 1610 ng/mL, the AUC(0-inf) [3, 13] was 11200 ng·h/mL and the AUC(0-t) [3, 13] was 11200 ng·h/mL. The MRT inf [3, 13] was 5.02 h, the Tmax [3, 13] was 1 h and the half-life [3, 13] was 3.39 h. The Cmax ([3]; monkey, plasma, po, i.g group, 5 mg/kg, read-out: Cmax) was 2010 ng/mL.

Reference: patent US11225460B2, “Pyrrolidineamide derivatives and uses thereof” (SUNSHINE LAKE PHARMA CO., LTD., priority 2019, dated 2022)
